Experimental data taken from ChEMBL document CHEMBL3616463, “Differential influence of 7 cations on 16 non-competitive NMDA receptor blockers” (Bioorg Med Chem Lett, 2015).

target: Glutamate NMDA receptor; type: cell membranes, Rattus norvegicus, Wistar, Brain, Membrane
Description: Displacement of [3H]MK-801 from NMDA receptor in Wistar rat brain membranes by scintillation counting analysis

SMILES | IC50
NCCCCCCCCc1ccc(CCCCN)s1 | 0.43 µM
NCCOC(c1ccccc1)c1ccccc1 | 5.48 µM
N=C(N)c1ccc(N2CCCN(c3ccc(C(=N)N)cc3)CC2)cc1 | 0.35 µM
C[C@@H](CN)C(c1cccc(F)c1)c1cccc(F)c1 | 0.11 µM
NCCCC12CCC(c3ccccc31)c1ccccc12 | 7.44 µM
C[C@](N)(Cc1ccccc1)c1ccccc1 | 0.78 µM
CN[C@@]1(c2ccccc2Cl)CCCCC1=O | 2.12 µM
NCCCCCCCCCCCCN | 8.39 µM
NC(N)=NCCCCN=C(N)N [ARCAINE] | 6.39 µM
CN(C)CCCN1c2ccccc2Sc2ccc(Cl)cc21 [CHLORPROMAZINE] | 21 µM
CN[C@]1(c2ccccc2Cl)CCCCC1=O [ESKETAMINE] | 0.64 µM
NCCCN1c2ccccc2Sc2ccc(Cl)cc21 [NOR2-CHLORPROMAZINE] | 5.79 µM
c1ccc(C2(N3CCCCC3)CCCCC2)cc1 [PHENCYCLIDINE] | 0.11 µM
COC(=O)[C@@H](N)Cc1c[nH]c2ccccc12 [TRYPTOPHAN METHYL ESTER] | 169 µM
